Source: the kinase profiling compilation of Christmann-Franck et al. (2016)

What was measured:
Assay in all cases: radiometric filter-binding kinase assay, Kinase HotSpot
Conditions in all cases: compound 0.5 µM; ATP 10 µM
CHEK1 (human) = CHEK1 (human) (UniProt O14757)
LTK (human) = LTK (human) (UniProt P29376)
CDC42BPA (human) = CDC42BPA (human) (UniProt Q5VT25)
PIM1 (human) = PIM1 (human) (UniProt P11309)
ADRBK1 (human) = ADRBK1 (human) (UniProt P25098)
DAPK1 (human) = DAPK1 (human) (UniProt P53355)
IRAK1 (human) = IRAK1 (human) (UniProt P51617)
OXSR1 (human) = OXSR1 (human) (UniProt O95747)
HIPK4 (human) = HIPK4 (human) (UniProt Q8NE63)
RPS6KB2 (human) = RPS6KB2 (human) (UniProt Q9UBS0)
TSSK1B (human) = TSSK1B (human) (UniProt Q9BXA7)
STK24 (human) = STK24 (human) (UniProt Q9Y6E0)
PDGFRB (human) = PDGFRB (human) (UniProt P09619)
PRKCG (human) = PRKCG (human) (UniProt P05129)
EPHB2 (human) = EPHB2 (human) (UniProt P29323)
NEK7 (human) = NEK7 (human) (UniProt Q8TDX7)
TTK (human) = TTK (human) (UniProt P33981)
EGFR (human) = EGFR (human) (UniProt P00533)
ABL1 (human) = ABL1 (human) (UniProt P00519)
MAPK12 (human) = MAPK12 (human) (UniProt P53778)
FGFR3 (human) = FGFR3 (human) (UniProt P22607)
TYRO3 (human) = TYRO3 (human) (UniProt Q06418)
PTK6 (human) = PTK6 (human) (UniProt Q13882)
SRPK2 (human) = SRPK2 (human) (UniProt P78362)
CAMK1D (human) = CAMK1D (human) (UniProt Q8IU85)
LCK (human) = LCK (human) (UniProt P06239)
NEK4 (human) = NEK4 (human) (UniProt P51957)
CAMKK2 (human) = CAMKK2 (human) (UniProt Q96RR4)
CSNK2A2 (human) = CSNK2A2 (human) (UniProt P19784)
DMPK (human) = DMPK (human) (UniProt Q09013)
TGFBR2 (human) = TGFBR2 (human) (UniProt P37173)
ACVRL1 (human) = ACVRL1 (human) (UniProt P37023)
DYRK1A (human) = DYRK1A (human) (UniProt Q13627)
BRAF (human) = BRAF (human) (UniProt P15056)
[1] = tested on: ARAF (human), P10398 [Y301D/Y302D]

Chain of EGFR (human) (P00533 whole entry, looked up): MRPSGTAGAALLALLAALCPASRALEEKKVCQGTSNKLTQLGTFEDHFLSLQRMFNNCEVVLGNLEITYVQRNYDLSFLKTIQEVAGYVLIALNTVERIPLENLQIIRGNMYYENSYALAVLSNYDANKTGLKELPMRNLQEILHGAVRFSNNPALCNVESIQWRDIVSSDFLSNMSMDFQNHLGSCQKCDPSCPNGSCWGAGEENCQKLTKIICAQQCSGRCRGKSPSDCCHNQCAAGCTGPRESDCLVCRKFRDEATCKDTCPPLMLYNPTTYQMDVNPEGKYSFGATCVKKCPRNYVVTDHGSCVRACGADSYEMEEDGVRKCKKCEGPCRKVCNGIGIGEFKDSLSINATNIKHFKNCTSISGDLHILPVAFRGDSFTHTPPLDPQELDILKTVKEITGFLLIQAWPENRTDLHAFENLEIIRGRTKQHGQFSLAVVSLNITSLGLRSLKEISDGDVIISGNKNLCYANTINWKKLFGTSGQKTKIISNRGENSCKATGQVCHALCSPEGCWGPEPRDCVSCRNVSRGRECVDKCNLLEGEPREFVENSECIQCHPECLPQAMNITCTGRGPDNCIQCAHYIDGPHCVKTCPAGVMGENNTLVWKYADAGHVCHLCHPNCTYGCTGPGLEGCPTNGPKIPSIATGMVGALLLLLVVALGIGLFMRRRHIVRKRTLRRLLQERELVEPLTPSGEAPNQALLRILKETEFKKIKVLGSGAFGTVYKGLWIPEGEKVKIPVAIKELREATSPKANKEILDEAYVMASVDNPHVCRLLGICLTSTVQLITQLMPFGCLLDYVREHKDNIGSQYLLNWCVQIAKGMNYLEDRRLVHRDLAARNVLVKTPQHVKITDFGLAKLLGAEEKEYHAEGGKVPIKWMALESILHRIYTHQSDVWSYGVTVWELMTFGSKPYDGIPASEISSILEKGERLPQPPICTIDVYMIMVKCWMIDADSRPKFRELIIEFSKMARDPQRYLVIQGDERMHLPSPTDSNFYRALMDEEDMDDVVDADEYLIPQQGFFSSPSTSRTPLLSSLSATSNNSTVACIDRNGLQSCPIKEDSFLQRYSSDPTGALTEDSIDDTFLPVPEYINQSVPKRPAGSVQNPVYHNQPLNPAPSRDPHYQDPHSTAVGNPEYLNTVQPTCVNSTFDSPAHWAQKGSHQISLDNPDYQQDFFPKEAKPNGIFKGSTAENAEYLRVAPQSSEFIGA
Chain of ADRBK1 (human) (P25098 whole entry, looked up): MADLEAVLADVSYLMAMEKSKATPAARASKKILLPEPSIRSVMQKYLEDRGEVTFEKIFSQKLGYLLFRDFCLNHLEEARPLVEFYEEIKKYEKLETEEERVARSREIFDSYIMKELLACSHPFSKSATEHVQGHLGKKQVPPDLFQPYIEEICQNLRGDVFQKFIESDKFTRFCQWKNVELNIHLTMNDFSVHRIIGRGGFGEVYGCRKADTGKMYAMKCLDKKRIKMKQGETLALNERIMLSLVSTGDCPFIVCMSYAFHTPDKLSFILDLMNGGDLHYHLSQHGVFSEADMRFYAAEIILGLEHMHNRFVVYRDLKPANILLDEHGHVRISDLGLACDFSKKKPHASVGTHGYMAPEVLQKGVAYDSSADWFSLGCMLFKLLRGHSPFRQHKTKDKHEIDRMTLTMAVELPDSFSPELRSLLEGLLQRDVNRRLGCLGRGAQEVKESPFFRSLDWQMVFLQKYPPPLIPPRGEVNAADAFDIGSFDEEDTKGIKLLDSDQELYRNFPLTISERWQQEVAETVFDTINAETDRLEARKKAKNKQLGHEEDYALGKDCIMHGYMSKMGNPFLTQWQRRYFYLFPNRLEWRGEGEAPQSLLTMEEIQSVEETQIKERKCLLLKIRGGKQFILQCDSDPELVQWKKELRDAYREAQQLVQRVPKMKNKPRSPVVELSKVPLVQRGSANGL
Chain of CAMKK2 (human) (Q96RR4 whole entry, looked up): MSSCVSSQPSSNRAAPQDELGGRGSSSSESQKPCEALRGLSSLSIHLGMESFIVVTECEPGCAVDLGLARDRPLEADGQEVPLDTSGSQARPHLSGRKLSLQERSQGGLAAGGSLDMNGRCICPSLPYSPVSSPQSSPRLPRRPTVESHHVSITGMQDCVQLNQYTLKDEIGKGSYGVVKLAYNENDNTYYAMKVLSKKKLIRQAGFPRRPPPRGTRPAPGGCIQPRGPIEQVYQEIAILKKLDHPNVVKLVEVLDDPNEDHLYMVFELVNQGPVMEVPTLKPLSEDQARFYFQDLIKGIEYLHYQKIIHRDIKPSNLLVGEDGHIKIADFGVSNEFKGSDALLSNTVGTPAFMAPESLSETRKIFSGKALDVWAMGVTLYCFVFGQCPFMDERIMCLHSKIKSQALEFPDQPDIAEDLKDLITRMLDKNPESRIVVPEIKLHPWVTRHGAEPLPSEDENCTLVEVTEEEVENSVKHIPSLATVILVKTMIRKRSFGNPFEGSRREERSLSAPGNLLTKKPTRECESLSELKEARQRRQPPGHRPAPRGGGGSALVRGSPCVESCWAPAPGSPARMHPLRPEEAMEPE
Chain of ACVRL1 (human) (P37023 whole entry, looked up): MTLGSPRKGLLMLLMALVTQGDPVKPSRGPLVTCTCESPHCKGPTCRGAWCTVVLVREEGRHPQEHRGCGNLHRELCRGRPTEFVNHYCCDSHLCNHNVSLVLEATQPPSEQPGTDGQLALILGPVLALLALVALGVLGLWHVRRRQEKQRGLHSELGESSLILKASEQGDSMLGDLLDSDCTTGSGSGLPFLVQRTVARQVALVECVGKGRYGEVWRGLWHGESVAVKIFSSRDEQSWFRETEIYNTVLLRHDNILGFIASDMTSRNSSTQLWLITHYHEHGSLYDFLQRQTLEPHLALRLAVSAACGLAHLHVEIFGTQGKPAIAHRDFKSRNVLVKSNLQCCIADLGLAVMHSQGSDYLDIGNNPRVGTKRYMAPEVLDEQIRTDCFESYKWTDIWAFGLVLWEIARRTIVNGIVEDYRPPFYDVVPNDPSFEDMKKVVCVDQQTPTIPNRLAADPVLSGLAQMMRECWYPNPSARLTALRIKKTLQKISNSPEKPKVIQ
Chain of PDGFRB (human) (P09619 whole entry, looked up): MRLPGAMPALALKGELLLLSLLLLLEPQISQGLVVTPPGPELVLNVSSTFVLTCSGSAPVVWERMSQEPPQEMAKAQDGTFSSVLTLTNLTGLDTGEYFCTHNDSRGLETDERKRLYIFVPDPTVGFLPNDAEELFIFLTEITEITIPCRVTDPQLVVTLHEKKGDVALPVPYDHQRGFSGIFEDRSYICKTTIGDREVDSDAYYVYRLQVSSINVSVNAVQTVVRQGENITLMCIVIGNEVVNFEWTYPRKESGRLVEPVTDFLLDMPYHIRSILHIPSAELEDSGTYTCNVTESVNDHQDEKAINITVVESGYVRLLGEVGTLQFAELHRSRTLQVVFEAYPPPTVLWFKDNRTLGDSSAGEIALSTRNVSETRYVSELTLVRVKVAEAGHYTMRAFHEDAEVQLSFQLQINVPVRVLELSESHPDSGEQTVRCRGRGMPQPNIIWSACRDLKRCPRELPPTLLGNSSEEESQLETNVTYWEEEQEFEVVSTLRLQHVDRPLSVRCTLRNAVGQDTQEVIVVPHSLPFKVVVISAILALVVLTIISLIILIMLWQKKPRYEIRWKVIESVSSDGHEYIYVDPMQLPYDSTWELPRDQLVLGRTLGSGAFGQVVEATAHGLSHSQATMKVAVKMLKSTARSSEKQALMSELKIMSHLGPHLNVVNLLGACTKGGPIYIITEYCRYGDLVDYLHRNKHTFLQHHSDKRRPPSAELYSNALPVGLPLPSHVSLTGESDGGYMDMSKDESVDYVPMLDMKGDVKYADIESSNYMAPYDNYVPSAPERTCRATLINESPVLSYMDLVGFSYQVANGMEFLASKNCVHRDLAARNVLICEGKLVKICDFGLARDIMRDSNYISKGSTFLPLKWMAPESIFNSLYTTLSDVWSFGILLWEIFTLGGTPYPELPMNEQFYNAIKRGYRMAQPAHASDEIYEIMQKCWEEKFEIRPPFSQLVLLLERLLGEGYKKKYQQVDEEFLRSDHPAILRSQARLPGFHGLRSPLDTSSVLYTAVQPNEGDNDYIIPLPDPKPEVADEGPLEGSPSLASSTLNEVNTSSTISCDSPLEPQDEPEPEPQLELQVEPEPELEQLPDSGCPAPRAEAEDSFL
Chain of IRAK1 (human) (P51617 whole entry, looked up): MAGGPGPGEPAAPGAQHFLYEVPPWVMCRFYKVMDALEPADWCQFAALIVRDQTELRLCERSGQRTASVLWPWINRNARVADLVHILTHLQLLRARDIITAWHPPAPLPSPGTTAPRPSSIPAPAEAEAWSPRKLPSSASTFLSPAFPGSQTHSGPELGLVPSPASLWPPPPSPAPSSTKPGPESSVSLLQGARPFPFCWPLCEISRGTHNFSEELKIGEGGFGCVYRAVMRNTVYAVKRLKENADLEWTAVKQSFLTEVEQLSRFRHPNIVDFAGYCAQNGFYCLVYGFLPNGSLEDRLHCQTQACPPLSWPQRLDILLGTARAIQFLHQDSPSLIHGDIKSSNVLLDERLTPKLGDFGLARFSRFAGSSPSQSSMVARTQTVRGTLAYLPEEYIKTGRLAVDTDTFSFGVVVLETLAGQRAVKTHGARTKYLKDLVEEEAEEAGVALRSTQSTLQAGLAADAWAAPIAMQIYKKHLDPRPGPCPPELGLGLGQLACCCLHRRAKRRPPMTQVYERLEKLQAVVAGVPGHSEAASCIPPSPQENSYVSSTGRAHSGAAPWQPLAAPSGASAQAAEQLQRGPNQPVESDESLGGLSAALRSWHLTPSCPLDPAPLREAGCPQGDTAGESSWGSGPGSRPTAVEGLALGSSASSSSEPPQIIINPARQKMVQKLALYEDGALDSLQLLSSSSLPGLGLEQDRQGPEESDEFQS

Row | SMILES | residual activity (CHEK1 (human)) [%] | residual activity (LTK (human)) [%] | residual activity (CDC42BPA (human)) [%] | residual activity (PIM1 (human)) [%] | residual activity (ADRBK1 (human)) [%] | residual activity (DAPK1 (human)) [%] | residual activity (IRAK1 (human)) [%] | residual activity (OXSR1 (human)) [%] | residual activity (HIPK4 (human)) [%] | residual activity (RPS6KB2 (human)) [%] | residual activity (TSSK1B (human)) [%] | residual activity (STK24 (human)) [%] | residual activity (PDGFRB (human)) [%] | residual activity (PRKCG (human)) [%] | residual activity (EPHB2 (human)) [%] | residual activity (NEK7 (human)) [%] | residual activity (TTK (human)) [%] | residual activity (ABL1 (human)) [%] | residual activity (FGFR3 (human)) [%] | residual activity (TYRO3 (human)) [%] | also measured
1 | O=c1cc(-c2cccc3c2Sc2ccccc2S3)oc(N2CCOCC2)c1 | 109 | 94.1 | 106 | 77.6 | 79 | 82.7 | 103 | 96.1 | 100 | 102 | 107 | 97.8 | 102 | 96.9 | 102 | 105 | 106 | 99.5 | 94.7 | 105 | residual activity (EGFR (human)): 107%; residual activity (MAPK12 (human)): 114%; residual activity (PTK6 (human)): 90.6%; residual activity (SRPK2 (human)): 110%; residual activity (CAMK1D (human)): 106%; residual activity (LCK (human)): 98.1%; residual activity (NEK4 (human)): 90%; residual activity (CAMKK2 (human)): 133%; residual activity (CSNK2A2 (human)): 96%; residual activity (DMPK (human)): 94.8%; residual activity (TGFBR2 (human)): 93.4%; residual activity (ACVRL1 (human)): 99.9%; residual activity (DYRK1A (human)): 95%
2 | O=C1Cc2c([nH]c3ccc([N+](=O)[O-])cc23)-c2ccccc2N1 | 37.5 | 93.9 | 96.2 | 92 | 91.8 | 104 | 93.1 | 97 | 103 | 96.5 | 74.7 | 66.4 | 87.4 | 92.5 | 101 | 89.7 | 87.4 | 57.7 | 90.5 | 96.7 | residual activity (BRAF (human)): 99.5%; residual activity (MAPK12 (human)): 112%; residual activity (PTK6 (human)): 92.7%; residual activity (SRPK2 (human)): 109%; residual activity (LCK (human)): 81.2%; residual activity [1]: 96.2%; residual activity (NEK4 (human)): 109%; residual activity (CAMKK2 (human)): 79.5%; residual activity (CSNK2A2 (human)): 64.4%; residual activity (DMPK (human)): 91.6%; residual activity (TGFBR2 (human)): 19.4%; residual activity (ACVRL1 (human)): 76.2%; residual activity (DYRK1A (human)): 86.2%
3 | O=C(NC(NC(=S)Nc1ccc(F)c([N+](=O)[O-])c1)C(Cl)(Cl)Cl)C(c1ccccc1)c1ccccc1 (stereo unspecified) | 100 | 91.5 | 111 | 101 | 79.5 | 75.1 | 107 | 98.3 | 104 | 99.3 | 93.4 | 92.8 | 105 | 99.8 | 101 | 102 | 96.9 | 101 | 96.8 | 108 | residual activity (EGFR (human)): 108%; residual activity (PTK6 (human)): 87.8%; residual activity (SRPK2 (human)): 103%; residual activity (CAMK1D (human)): 99%; residual activity (LCK (human)): 91.8%; residual activity (NEK4 (human)): 87.8%; residual activity (CAMKK2 (human)): 126%; residual activity (CSNK2A2 (human)): 97%; residual activity (DMPK (human)): 85.5%; residual activity (TGFBR2 (human)): 91.6%; residual activity (ACVRL1 (human)): 107%; residual activity (DYRK1A (human)): 99.8%
4 | O=C1Nc2ccccc2/C1=C\c1c(Cl)[nH]c2ccccc12 | 93.7 | 95.1 | 95.7 | 88.5 | 98.9 | 88.1 | 89.5 | 89.1 | 98.8 | 99.4 | 101 | 81.5 | 102 | 89.2 | 94.2 | 97.6 | 101 | 95.2 | 101 | 99.4 | residual activity (EGFR (human)): 97.5%; residual activity (MAPK12 (human)): 93%; residual activity (PTK6 (human)): 76.9%; residual activity (SRPK2 (human)): 94.4%; residual activity (CAMK1D (human)): 102%; residual activity (LCK (human)): 95.5%; residual activity (NEK4 (human)): 97.7%; residual activity (CAMKK2 (human)): 97.8%; residual activity (CSNK2A2 (human)): 94.3%; residual activity (DMPK (human)): 101%; residual activity (TGFBR2 (human)): 95.6%; residual activity (ACVRL1 (human)): 99.8%; residual activity (DYRK1A (human)): 107%
